Assays:
DU-145 = assay: Wound healing assay, DU-145; assay type: cell-based; details: 4 μM, 72 h, 1% FBS
Experimental: Figure S20. Wound healing assay with iDual and ricolinostat. (A) MDA-MB-231 and (B) DU-145 […]
and ricolinostat for 72 h cells grown in relative medium with (1%) FBS conditions. Wound healing is photographed with Nikon Eclipse TS 100 microscope. Wound/healed area is quantified using Image […]

HDAC8 = target: T1, HDAC8 (Homo sapiens, UniProt Q9BY41); assay: Cellular thermal shift assay (CETSA), HDAC8; assay type: cell-based; details: THP-1 cells, 1 h; 4 μM (methods, Figure 2), Figure S14 legend 500 nM
T1 construct: endogenous in cells; host or cells: THP-1
T1 sequence (Q9BY41 1-377): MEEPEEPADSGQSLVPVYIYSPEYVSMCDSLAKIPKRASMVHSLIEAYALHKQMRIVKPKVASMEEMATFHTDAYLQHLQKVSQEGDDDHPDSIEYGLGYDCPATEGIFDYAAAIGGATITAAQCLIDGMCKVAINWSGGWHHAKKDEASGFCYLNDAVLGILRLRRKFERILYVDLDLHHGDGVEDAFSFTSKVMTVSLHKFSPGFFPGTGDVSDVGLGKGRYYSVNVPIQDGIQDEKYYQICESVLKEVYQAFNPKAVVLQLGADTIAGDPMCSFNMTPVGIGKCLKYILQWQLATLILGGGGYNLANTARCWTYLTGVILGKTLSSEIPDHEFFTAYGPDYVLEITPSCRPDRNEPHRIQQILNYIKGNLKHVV
Experimental: THP-1 cells, 1 × 10^7 cells at a density of 1 × 10^6 cells/mL, were treated with 4 μM of test compounds (1 h, 37 °C, 5% CO2). Cells were centrifuged, and the pellet was resuspended with 1 × Phosphate Buffer Saline (Gibco, Grand Island, NY, USA, #10010023) containing 1 × Protease Inhibitor Cocktail (Cell Signaling Technology, Beverly, MA, USA, #5871) and 1 mM phenylmethylsulfonyl fluoride (PMSF, Sigma Aldrich, St. Louis, MO, USA, #10837091001). The suspension volume was divided equally and heated for 3 min at 43–64 °C in a T100 Thermal Cycler (Bio-rad, Hercules, CA, USA). For protein extraction, cells were snap-frozen using liquid nitrogen, thawed twice (25 °C, 1 min), then centrifuged (20,000× g, 15 min, 4 °C). Following centrifugation, protein containing supernatants were denatured at 70 °C for 10 min and loaded on SDS-PAGE gels (Bio-Rad, Hercules, CA, USA, 161-0317). […] The signal was detected with BIORAD Chemi-Doc XRS+ System and by using Immobilon Forte Western HRP Substrate (WBLUF0500).

THP-1 cells = assay: Combination treatment with antileukemic drugs, THP-1 cell viability; assay type: cell-based; details: compound 5 μM 72 h, then compound + etoposide 0.2 μM 48 h
LSD1 = LSD1 (Homo sapiens, UniProt O60341); assay: LSD1 MALDI-TOF enzyme assay; assay type: biochemical; design: made in house; details: ± standard error, three independent measurements
N-ter-GST-HDAC-6 = target: T2, N-ter-GST-HDAC-6 (Homo sapiens, UniProt Q9UBN7); assay: HDAC-Glo I/II enzyme assay, HDAC6; assay type: biochemical
T2 construct: GST (N); purchased BPS Bioscience 50006
T2 sequence (Q9UBN7 1-1215): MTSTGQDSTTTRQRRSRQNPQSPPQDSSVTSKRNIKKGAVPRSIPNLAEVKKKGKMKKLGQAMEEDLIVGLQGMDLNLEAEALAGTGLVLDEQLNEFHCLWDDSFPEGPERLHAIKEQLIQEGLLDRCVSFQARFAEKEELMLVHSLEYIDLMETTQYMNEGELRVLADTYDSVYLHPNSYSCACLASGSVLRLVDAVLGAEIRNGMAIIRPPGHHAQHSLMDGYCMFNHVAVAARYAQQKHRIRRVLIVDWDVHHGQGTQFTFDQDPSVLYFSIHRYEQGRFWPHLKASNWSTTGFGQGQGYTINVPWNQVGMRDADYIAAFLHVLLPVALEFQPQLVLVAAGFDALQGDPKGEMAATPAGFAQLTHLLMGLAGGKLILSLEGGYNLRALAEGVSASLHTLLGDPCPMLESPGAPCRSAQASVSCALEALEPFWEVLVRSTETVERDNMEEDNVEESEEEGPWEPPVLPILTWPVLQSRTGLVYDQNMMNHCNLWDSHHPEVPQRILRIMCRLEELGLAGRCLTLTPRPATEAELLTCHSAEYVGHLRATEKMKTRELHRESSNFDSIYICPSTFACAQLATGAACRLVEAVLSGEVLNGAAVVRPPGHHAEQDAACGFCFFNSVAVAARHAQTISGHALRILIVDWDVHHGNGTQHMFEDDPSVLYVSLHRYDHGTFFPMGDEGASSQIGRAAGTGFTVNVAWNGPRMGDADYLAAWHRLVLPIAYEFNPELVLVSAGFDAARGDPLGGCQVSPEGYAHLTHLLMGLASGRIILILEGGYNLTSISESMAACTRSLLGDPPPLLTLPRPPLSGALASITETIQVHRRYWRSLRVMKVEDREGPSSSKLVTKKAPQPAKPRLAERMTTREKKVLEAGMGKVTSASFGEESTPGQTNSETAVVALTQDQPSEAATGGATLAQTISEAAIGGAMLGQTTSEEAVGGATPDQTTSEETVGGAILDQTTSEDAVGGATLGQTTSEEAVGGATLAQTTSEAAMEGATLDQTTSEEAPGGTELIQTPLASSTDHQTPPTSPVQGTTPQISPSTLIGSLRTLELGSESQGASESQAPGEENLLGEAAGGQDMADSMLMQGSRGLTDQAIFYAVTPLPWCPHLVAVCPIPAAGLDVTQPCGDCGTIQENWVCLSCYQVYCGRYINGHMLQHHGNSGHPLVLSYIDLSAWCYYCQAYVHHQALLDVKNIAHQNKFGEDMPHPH

| IC50 (LSD1) [nM] | HDAC6/HDAC1 isoform selectivity (N-ter-GST-HDAC-6) [fold] | IC50 (N-ter-GST-HDAC-6; ± standard error, three independent measurements) [nM] | SMILES | wound healing capacity DU-145 (DU-145) | thermal stabilization of HDAC8 (CETSA) (HDAC8) | cell viability after pre-treatment with compound and co-treatment with etoposide (THP-1 cells) |
| --- | --- | --- | --- | --- | --- | --- |
| – | – | – | O=C(NO)c1ccc(CN2CCC(CN[C@@H]3C[C@H]3c3ccccc3)CC2)cc1 (relative stereo) [iDual] | slowed down | not significantly stabilized | decreased cell viability was not observed |
| > 100000 | > 30 | 230 ± 20 | O=C(NO)c1ccc(CN2CCC(CNC3(c4ccccc4)CC3)CC2)cc1 [iHDAC6] | – | – | – |
